From US12162858B2, “Quinoline derivatives as inhibitors of AXL/MER RTK and CSF1R” (QURIENT CO., LTD., priority 2018, dated 2024)
pKd: −log10 of the molar value. Where two headings read alike, the source gives them in different places.

Key:
Mer = biological target: T1, Mer (Homo sapiens, UniProt Q12866); assay: LanthaScreen Eu kinase binding assay for Mer; conditions: read-out: Mer kinase binding activity (Kd)
T1 construct: purchased Life Technologies
T1 sequence (Q12866 21-999): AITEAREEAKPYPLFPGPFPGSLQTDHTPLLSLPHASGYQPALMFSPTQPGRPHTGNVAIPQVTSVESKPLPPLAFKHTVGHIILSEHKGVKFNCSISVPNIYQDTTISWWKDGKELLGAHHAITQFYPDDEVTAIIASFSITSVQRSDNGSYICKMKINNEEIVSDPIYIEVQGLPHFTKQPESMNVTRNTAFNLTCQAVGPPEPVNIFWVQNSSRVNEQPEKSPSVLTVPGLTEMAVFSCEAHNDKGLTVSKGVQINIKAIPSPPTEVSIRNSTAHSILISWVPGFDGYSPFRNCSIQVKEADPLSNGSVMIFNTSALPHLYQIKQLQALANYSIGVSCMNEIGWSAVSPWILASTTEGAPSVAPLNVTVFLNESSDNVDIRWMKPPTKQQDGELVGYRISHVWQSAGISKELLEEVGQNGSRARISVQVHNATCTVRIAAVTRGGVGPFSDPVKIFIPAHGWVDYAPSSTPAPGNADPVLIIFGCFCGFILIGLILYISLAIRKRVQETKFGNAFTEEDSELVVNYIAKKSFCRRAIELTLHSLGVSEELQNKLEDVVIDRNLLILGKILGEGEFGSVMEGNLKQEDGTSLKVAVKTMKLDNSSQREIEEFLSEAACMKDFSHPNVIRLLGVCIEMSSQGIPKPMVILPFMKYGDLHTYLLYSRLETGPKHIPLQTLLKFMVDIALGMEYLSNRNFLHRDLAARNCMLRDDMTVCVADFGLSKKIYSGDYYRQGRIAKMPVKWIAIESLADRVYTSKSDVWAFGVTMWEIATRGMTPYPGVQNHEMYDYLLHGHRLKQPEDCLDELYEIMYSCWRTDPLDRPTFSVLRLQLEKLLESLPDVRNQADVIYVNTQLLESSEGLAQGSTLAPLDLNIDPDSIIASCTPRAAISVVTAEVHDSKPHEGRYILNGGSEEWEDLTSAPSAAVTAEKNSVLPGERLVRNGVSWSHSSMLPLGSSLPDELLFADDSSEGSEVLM
How it was run: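 Competitive displacement of Alexa Fluor 647-labeled Tracer 236 from the kinase, with binding detected by TR-FRET with a Eu-labeled anti-GST antibody. Compounds were run as 8-step DMSO serial dilutions and incubated 1 h at room temperature. Kd was calculated relative to DMSO vehicle control wells.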

CSF1R = CSF1R (Homo sapiens, UniProt P07333); assay: KINOMEscan competition binding assay for CSF1R; set-up: DNA tag for qPCR (not a peptide); host or cells: E. coli/T7 phage or HEK-293; conditions: @ 0.1 uM
Chain of CSF1R (P07333 20-972): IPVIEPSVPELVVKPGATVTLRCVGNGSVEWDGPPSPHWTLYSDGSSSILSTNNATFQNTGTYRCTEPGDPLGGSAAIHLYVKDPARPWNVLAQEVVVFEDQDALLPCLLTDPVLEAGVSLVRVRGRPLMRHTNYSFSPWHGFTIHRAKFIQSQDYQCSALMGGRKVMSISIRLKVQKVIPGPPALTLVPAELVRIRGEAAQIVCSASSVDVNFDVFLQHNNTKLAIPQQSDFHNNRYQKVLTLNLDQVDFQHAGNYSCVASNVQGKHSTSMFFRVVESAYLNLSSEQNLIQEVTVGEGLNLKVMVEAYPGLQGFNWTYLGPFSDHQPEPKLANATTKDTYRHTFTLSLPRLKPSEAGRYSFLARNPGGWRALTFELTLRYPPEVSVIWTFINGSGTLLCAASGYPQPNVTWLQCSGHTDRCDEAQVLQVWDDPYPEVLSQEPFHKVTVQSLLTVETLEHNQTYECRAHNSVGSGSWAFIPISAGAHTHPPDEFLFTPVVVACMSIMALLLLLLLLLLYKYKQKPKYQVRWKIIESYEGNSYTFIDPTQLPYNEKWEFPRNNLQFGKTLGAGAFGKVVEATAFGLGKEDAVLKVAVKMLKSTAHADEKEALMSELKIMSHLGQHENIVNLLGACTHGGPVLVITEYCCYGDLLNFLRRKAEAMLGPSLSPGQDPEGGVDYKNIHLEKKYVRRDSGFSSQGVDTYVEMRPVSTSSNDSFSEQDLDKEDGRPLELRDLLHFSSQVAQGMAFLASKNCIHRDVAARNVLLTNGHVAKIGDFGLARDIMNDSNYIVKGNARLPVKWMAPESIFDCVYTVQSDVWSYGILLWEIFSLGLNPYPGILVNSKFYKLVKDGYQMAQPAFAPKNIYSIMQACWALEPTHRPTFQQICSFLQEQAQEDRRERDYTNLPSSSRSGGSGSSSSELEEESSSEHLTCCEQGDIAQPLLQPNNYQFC
How it was run: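 Values are either % inhibition at 0.1 uM, relative to DMSO (100% Ctrl) and a control compound (0% Ctrl), or Kd from an 11-point 3-fold series fitted with Hill slope −1. DNA-tagged kinase binds immobilized ligand beads with compound for 1 h at room temperature, and eluted kinase is measured by qPCR.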

[1] = read-out: CSF1R kinase binding activity, Percent (%) inhibition
[2] = read-out: CSF1R kinase binding activity, Range

A pKd (Mer) of over 7.00, an inhibition at 0.1 µM (CSF1R; [1]) of 69% and an inhibition at 0.1 µM (CSF1R; [2]) of 50 to 80% were found for COc1cc2nccc(Oc3ccc(NC(=O)c4nn(C5CC5)cc4OCCC(F)(F)F)nn3)c2cc1OC [Compound 173] in this work.

A pKd (Mer) of at most 6.30, an inhibition at 0.1 µM (CSF1R; [1]) of 25% and an inhibition at 0.1 µM (CSF1R; [2]) of under 50% were found for COc1cc2nccc(Oc3ccc(NC(=O)c4nn(CC(C)O)cc4OCC4CN(C)C4)nc3)c2cc1OC (stereo not drawn) [Compound 174] in this work.

A pKd (Mer) of over 7.00, an inhibition at 0.1 µM (CSF1R; [1]) of 97% and an inhibition at 0.1 µM (CSF1R; [2]) of at least 80% were found for COc1cc2nccc(Oc3ccc(NC(=O)c4nn(CC(C)O)cc4OCC(F)F)nc3)c2cc1OC (stereo not drawn) [Compound 175] in this work.

A pKd (Mer) of 6.30 to 7.00, an inhibition at 0.1 µM (CSF1R; [1]) of 40% and an inhibition at 0.1 µM (CSF1R; [2]) of under 50% were found for COc1cc2nccc(Oc3ccc(NC(=O)c4nc(CCC(F)(F)F)oc4CCC4CCC4)nc3)c2cc1OC [Compound 176] in this work.
